# Assay results: patent publication US20250236589A1, “THERAPEUTIC PHENETHYLAMINE COMPOSITIONS AND METHODS OF USE” (Cybin IRL Limited, priority 2022, published 2025)
# Where two headings read alike, the source gives them in different places. Marks after values point to notes of the source that are not given here.
# What was measured:
# [1] = molecular target: MAO-A (Homo sapiens (Human), UniProt P21397); assay: Recombinant human MAO-A activity (stability); format: in vitro ADME; settings: hrMAO 0.02 mg/mL, read-out: MAO-A, t1/2
# Experimental: hrMAO-A and MAO control were purchased from XenoTech. The reaction mixture was prepared as described below. The test compound was added into the reaction mixture at a final concentration of 1 μM or co-dosed with their deuterated analog at 1 μM each. The positive control kynuramine (25 μM) was run simultaneously with the test compound in a separate reaction. The reaction mixture (without test compounds or kynuramine) was equilibrated in a shaking water bath at 37° C. for 5 minutes. The reaction was initiated by the addition of the test compound or kynuramine, and the mixture was incubated in a shaking water bath at 37° C. Aliquots (150 μL) of the test compound reaction mixture were withdrawn at 0, 5, 10, 20, 30, 60, and 120 minutes. Aliquots (150 μL) of the positive control reaction mixture were withdrawn at 0 and 30 minutes. Test compound(s) and kynuramine samples were immediately combined with 150 μL of ice-cold 100% acetonitrile containing 0.1% formic acid and internal standard (0.2 μM metoprolol) to terminate the reaction. The samples were then mixed and centrifuged to precipitate proteins. All samples were assayed by LC-MS/MS. The peak area response ratio (PARR) of analyte to internal standard at each time point was compared to the PARR at time 0 to determine the percent remaining at each time point. Half-lives were calculated using GraphPad software, fitting to a single-phase exponential decay equation.
# [2] = molecular target: T1, 5-HT2A receptor (Homo sapiens (Human), UniProt P28223); assay: 5-HT2A radioligand competition binding ([3H]LSD or [3H]ketanserin)
# [3] = In vitro liver microsome stability (RLM); format: in vitro ADME; settings: rat, rat liver microsomes, 0.5 mg/mL microsomes, NADPH, read-out: RLM, t1/2
# Experimental: In vitro stability was determined in Human (HLM), Rat (RLM), Mouse (MsLM), and dog (DLM) Liver Microsomes. All liver microsomes were purchased from a commercial supplier (e.g. XenoTech). The reaction mixture, minus NADPH, was prepared as described below. The test compound was added into the reaction mixture at a final concentration of 1 μM or co-dosed with their deuterated analog(s) at 1 μM each. The control compound, testosterone, was run simultaneously with the test compound in a separate reaction. The reaction mixture (without cofactor) was equilibrated in a shaking water bath at 37° C. for 5 minutes. The reaction was initiated by the addition of the cofactor, and the mixture was incubated in a shaking water bath at 37° C. Aliquots (150 μL) were withdrawn at 0, 5, 10, 20, 30, 60, and 120 minutes. Test compound and testosterone samples were immediately combined with 150 μL of ice-cold acetonitrile (ACN) containing 0.1% formic acid and internal standard to terminate the reaction. The samples were then mixed and centrifuged to precipitate proteins. All samples were assayed by LC-MS/MS using electrospray ionization. The peak area response ratio (PARR) of analyte to internal standard at each time point was compared to the PARR at time 0 to determine the percent remaining at each time point. Half-lives were calculated using GraphPad software, fitting to a single-phase exponential decay equation.
# [4] = Plasma and brain concentrations after dosing in mice (screening); format: in vivo, mouse; settings: mouse; for concentration at 15 min / concentration at 160 min: sc, mice, 3 mg/kg s.c.; for Kp at 160 min: brain/plasma, subcutaneous, 3 mg/kg, 160 min after 3 mg/kg, read-out: brain/plasma ratio, 160 min
# [5] = molecular target: T1, 5-HT2A receptor; assay: 5-HT2A functional assay, IP1 (IPOne); format: cell-based; settings: IP1 assay; for EC50: read-out: 5-HT2A EC50; for Emax: relative to 5-HT
# Experimental: After incubation, cells were lysed and fluorescence acceptor and donor were added. FRET was measured after 60 min at room temperature using a microplate reader (Envision, Perkin Elmer). TRUPATH assays followed a similar workflow, except that different reagents were used, and LiCl was not included in the samples; the protocol was based on the report by Olsen, R. H. J. et al., cited above.
# [6] = molecular target: human 5-HT2B receptor (Homo sapiens (Human), UniProt P41595); assay: 5-HT2B functional assay, IP1 (IPOne); format: cell-based; settings: for Emax: IP1 assay, relative to 5-HT
# Experimental: 5-HT2A,2B,2C receptor-mediated Gq activation—canonical signaling pathways—[phosphoinositide hydrolysis leading to the production of inositol phosphate 1 (IP1, IPOne, Cisbio assay) or direct G-protein activation using TRUPATH technology]were measured as previously described (Porter, R. H. P., Benwell, K. R., Lamb, H., Malcolm, C. S., Allen, N. F., Revell, D. F., Adams, D. R. and Sheardown, M. J., 1999, Functional characterization of agonists at recombinant human 5-HT2a, 5HT2b and 5-HT2c receptors in CHO-K1 cells, Brit J Pharmacol 128, 13; Olsen, R. H. J., DiBerto, J. F., English, J. G. et al. TRUPATH, an open-source biosensor platform for interrogating the GPCR transducerome. […] Briefly, for the IPOne assay, for 5-HT2ARs, CHO-K1 or HEK-293 cells were incubated with test articles and 5-HT (positive control) in stimulation buffer containing LiCl. After incubation, cells were lysed and fluorescence acceptor and donor were added. FRET was measured after 60 min at room temperature using a microplate reader (Envision, Perkin Elmer). TRUPATH assays followed a similar workflow, except that different reagents were used, and LiCl was not included in the samples; the protocol was based on the report by Olsen, R. H. J. et al., cited above.
# [7] = tested on: mice; assay: Head-twitch response (HTR) screening in mice; format: in vivo, mouse
# Experimental: Protocols were followed according to Canal C E, Morgan D. Head-twitch response in rodents induced by the hallucinogen 2,5-dimethoxy-4-iodoamphetamine: a comprehensive history, a re-evaluation of mechanisms, and its utility as a model. […] Mice were housed in standard laboratory cages with ad libitum access to food and water and were acclimated to the vivarium for at least one week prior to testing in a procedure room. In a typical experiment, mice were injected 3 mg/kg of test article subcutaneously. Mice were placed immediately thereafter in a clear, polycarbonate box (46×20×20 cm), and HTRs were counted at various time points after administration using hand-held tally counters. In a separate experiment, plasma and brain samples were collected at 15 and 160 minutes after administration of test compounds to measure plasma and brain concentrations. Quantification was performed using LC-MS/MS method (LLOQ, 9 nM).
# [8] = read-out: 5-HT2A, Ki, radioligand [3H]LSD
# [9] = brain, read-out: Brain, 160 min
# [10] = plasma, read-out: Plasma, 15 min
# [11] = plasma, read-out: Plasma, 160 min
# [12] = read-out: 5-HT2A, Ki, radioligand [3H]ketanserin
# MAO-A, sequence (P21397 whole entry, looked up): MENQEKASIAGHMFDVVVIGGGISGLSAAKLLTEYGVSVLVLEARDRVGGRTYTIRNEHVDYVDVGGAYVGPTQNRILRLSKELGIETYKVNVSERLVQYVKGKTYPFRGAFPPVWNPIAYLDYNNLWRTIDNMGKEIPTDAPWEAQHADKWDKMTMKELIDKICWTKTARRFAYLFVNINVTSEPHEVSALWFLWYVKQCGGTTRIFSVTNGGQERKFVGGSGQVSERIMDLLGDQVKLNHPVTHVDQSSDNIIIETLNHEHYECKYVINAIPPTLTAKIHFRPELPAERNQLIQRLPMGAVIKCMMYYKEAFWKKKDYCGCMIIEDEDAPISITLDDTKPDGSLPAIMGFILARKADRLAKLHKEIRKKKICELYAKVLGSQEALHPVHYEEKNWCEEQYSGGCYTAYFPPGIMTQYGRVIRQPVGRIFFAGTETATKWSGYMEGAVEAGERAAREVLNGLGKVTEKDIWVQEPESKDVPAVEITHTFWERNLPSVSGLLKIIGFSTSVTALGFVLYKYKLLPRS
# human 5-HT2B receptor, sequence (P41595 whole entry, looked up): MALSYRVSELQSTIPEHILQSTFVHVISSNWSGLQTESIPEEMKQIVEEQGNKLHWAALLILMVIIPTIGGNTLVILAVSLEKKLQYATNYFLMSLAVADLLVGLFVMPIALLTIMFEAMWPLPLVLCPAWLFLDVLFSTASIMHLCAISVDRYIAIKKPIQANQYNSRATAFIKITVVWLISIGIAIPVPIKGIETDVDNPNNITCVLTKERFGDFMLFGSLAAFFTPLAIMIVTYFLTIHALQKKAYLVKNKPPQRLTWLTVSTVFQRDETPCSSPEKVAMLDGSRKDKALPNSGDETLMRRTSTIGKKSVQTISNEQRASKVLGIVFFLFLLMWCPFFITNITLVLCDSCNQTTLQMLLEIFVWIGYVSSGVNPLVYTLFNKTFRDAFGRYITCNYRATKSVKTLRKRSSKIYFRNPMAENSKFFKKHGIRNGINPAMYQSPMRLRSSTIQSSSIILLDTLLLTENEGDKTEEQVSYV
structure (smiles),measurement,setting,value
"COc1cc(SCCC(F)(F)F)c(OC)cc1CCN [Compound I-2, 2-(2,5-dimethoxy-4-((3,3,3-trifluoropropyl)thio)phenyl)ethan-1-amine]",half-life at 1 μM,[1],30.9 min
same,affinity at 5-HT2A receptors (in words),[2],high affinity
same,Ki,[2]; [8],8.5 nM
same,half-life at 1 μM,[3],24.8 min
"COc1cc(SCCCF)c(OC)cc1CCN [Compound I-4, 2-(4-((3-fluoropropyl)thio)-2,5-dimethoxyphenyl)ethan-1-amine]",half-life at 1 μM,[1],45 min
same,affinity at 5-HT2A receptors (in words),[2],high affinity
same,Ki,[2]; [8],12 nM
same,half-life at 1 μM,[3],11 min
"COc1cc(OCCC(F)(F)F)c(OC)cc1CCN [Compound I-5, 2-(2,5-dimethoxy-4-(3,3,3-trifluoropropoxy)phenyl)ethan-1-amine]",Ki,[2],> 150 nM
same,half-life at 1 μM,[3],> 120 min
"COc1cc(OCCC(F)F)c(OC)cc1CCN [Compound I-6, 2-(4-(3,3-difluoropropoxy)-2,5-dimethoxyphenyl)ethan-1-amine]",Ki,[2],> 150 nM
same,half-life at 1 μM,[3],> 120 min
"COc1cc(OCCCF)c(OC)cc1CCN [Compound I-7, 2-(4-(3-fluoropropoxy)-2,5-dimethoxyphenyl)ethan-1-amine]",half-life at 1 μM,[1],> 120 min
same,Ki,[2],> 150 nM
same,Ki,[2]; [8],2600 nM
same,half-life at 1 μM,[3],> 120 min
"COc1cc(SCC(F)(F)C(F)F)c(OC)cc1CCN [Compound I-10, 2-(2,5-dimethoxy-4-((2,2,3,3-tetrafluoropropyl)thio)phenyl)ethan-1-amine]",concentration at 15 min,"[4]; brain, read-out: Brain 15 min",900 nM
same,concentration at 160 min,[4]; [9],1100 nM
same,Kp at 160 min,[4],12.3
same,concentration at 15 min,[4]; [10],900 nM
same,concentration at 160 min,[4]; [11],100 nM
same,2A/2B EC50 Selectivity,[5],2.7
same,EC50,[5],89 nM
same,Emax,[5],76%
same,affinity at 5-HT2A receptors (in words),[2],high affinity
same,EC50,[6],240 nM
same,Emax,[6],84%
same,HTR 15-25 min,"[7]; mice, 3 mg/kg s.c.",3.4
same,HTR 160-170 min,"[7]; mice, 3 mg/kg s.c.",2.7
"C#CCSc1cc(OC)c(CCN)cc1OC [Compound I-11, 2-(2,5-dimethoxy-4-(prop-2-yn-1-ylthio)phenyl)ethan-1-amine]",Ki,[2]; [8],1.3 nM
same,HTR 15-25 min,[7]; calculated using 0-30 min,24.5 ####
same,HTR 160-170 min,"[7]; mice, 3 mg/kg s.c.",16.7
"COc1cc(C2CCCC2)c(OC)cc1CCN [Compound I-13, 2-(4-cyclopentyl-2,5-dimethoxyphenyl)ethan-1-amine]",half-life at 1 μM,[1],> 120 min
same,affinity at 5-HT2A receptors (in words),[2],appreciable affinity
same,Ki,[2]; [8],150 nM
same,half-life at 1 μM,[3],7.8 min
same,HTR (in words),[7]; 3 mg/kg,did not elicit an HTR
same,HTR 15-25 min,"[7]; mice, 3 mg/kg s.c.",2.7
"[2H]C([2H])([2H])Oc1cc(SC)c(OC([2H])([2H])[2H])cc1CCN [II-1, 2-(2,5-bis(methoxy-d3)-4-(methylthio)phenyl)ethan-1-amine]",Ki,[2],> 150 nM
same,Ki,[2]; [12],174 nM
same,half-life at 1 μM,[3],5.7 min
same,HTR 15-25 min,[7]; measured 0-15 min,21 ##
"[2H]C([2H])([2H])Oc1cc(C(C)(C)C)c(OC([2H])([2H])[2H])cc1CCN [II-3, 2-(4-(tert-butyl)-2,5-bis(methoxy-d3)phenyl)ethan-1-amine]",Ki,[2]; [8],11 nM
same,half-life at 1 μM,[3],2.4 min
"[2H]C([2H])([2H])Oc1cc(C2CCCC2)c(OC([2H])([2H])[2H])cc1CCN [II-4, 2-(4-cyclopentyl-2,5-bis(methoxy-d3)phenyl)ethan-1-amine]",half-life at 1 μM,[1],> 120 min
same,Ki,[2],> 150 nM
same,Ki,[2]; [8],202 nM
same,half-life at 1 μM,[3],7.5 min
"[2H]C([2H])([2H])Oc1cc(C(F)(F)F)c(OC([2H])([2H])[2H])cc1CCN [II-23, 2-(2,5-bis(methoxy-d3)-4-(trifluoromethyl)phenyl)ethan-1-amine]",half-life at 1 μM,[1],> 120 min
same,Ki,[2]; [12],55 nM
same,half-life at 1 μM,[3],21.4 min
"[2H]C([2H])([2H])C(c1cc(OC)c(CCN)cc1OC)(C([2H])([2H])[2H])C([2H])([2H])[2H] [III-2, 2-(2,5-dimethoxy-4-(2-(methyl-d3)propan-2-yl-1,1,1,3,3,3-d6)phenyl)ethan-1-amine]",Ki,[2],10 nM
same,half-life at 1 μM,[3],2.5 min
"[2H]C([2H])(N)Cc1cc(OC)c(SC)cc1OC [IV-1, 2-(2,5-dimethoxy-4-(methylthio)phenyl)ethan-1,1-d2-1-amine]",Ki,[2],> 150 nM
same,Ki,[2]; [12],357 nM
same,half-life at 1 μM,[3],5.3 min
"COc1cc(C(C)(C)C)c(OC)cc1CCN [VI-1, 2-(4-(tert-butyl)-2,5-dimethoxyphenyl)ethan-1-amine]",concentration at 15 min,"[4]; brain, read-out: Brain 15 min",2900 nM
same,concentration at 160 min,[4]; [9],4600 nM
same,Kp at 160 min,[4],57.1
same,concentration at 15 min,[4]; [10],250 nM
same,concentration at 160 min,[4]; [11],80 nM
same,2A/2B EC50 Selectivity,[5],6
same,EC50,[5],4.2 nM
same,Emax,[5],87%
same,Ki,[2]; [8],9.9 nM
same,half-life at 1 μM,[3],2.4 min
same,EC50,[6],25 nM
same,Emax,[6],87%
same,HTR 15-25 min,"[7]; mice, 3 mg/kg s.c.",24.5
same,HTR 160-170 min,"[7]; mice, 3 mg/kg s.c.",17.7
